*1 amine or outer side, *2 acyl side, *3 side chain or, on linkers, in order; H or OH if unused. Where a SMILES comes first, the peptide text is derived from it. Bridges are numbered along the chain shown (N, C = ends). Roman numbers before positions name the chains, in order. [ ]: non-standard residue; d: D form. CO(CH2)2(OCH2CH2)17CO = O=C(CCOCCOCCOCCOCCOCCOCCOCCOCCOCCOCCOCCOCCOCCOCCOCCOCCOCCC(=O)[*:2])[*:1]; PEG8 = NCCOCCOCCOCCOCCOCCOCCOCCOCCC(=O)O; 3Pal = N[C@@H](Cc1cccnc1)C(=O)O; X2 = O=C(CCOCCC(=O)[*:2])[*:1]; PEG2 = NCCOCCOCCC(=O)O
Tests used:
Format in all cases: cell-based
[1] = molecular target: T1, TrkB (CellSensor TrkB-NFAT-bla CHO-K1 Cell) (Homo sapiens, UniProt Q16620); assay: NFAT transcriptional reporter assay for TrkB agonist activity; conditions: class = peptide concentration giving 50% or more activity; BDNF maximum signal = 100%, no stimulation = 0%; 5 hours culture
T1 construct: host or cells: CHO-K1 (CellSensor TrkB-NFAT-bla CHO-K1)
Protocol: To evaluate the TrkB activation potency of the TrkB agonist peptide of the present invention, transcriptional activity was examined using transcriptional reporters. The CellSensor (registered trademark) TrkB-NFAT-bla CHO-K1 Cell (Invitrogen) used in the AlphaLISA assay was cultured in the medium above. After the cells were detached using Accutase (Innovative Cell Technologies), the cells were suspended in an assay medium, wherein Blasticidin and Zeocin were removed, then seeded into a 96-well plate for adherent cultures at 12,500 cells per well and cultured overnight. Then, BDNF or a peptide was added thereto, and the cells were further cultured in a CO2 incubator for 5 hours. After the 96-well plate was removed from the incubator and brought to room temperature, a detection reagent (LiveBLAzer (registered trademark)-FRET B/G (CCF4-AM) Substrate Mixture) was added while protected from the light, and the 96-well plate was incubated while protected from the light in a moisture box with a lid for 2 hours. For signal detection, a EnVision 2104 Multilabel Plate Reader (PerkinElmer) was used, and the ratio of fluorescence emission value (460 nm/535 nm) was calculated. The obtained numerical values were analyzed with GraphPad Prism, and the activity (%) was calculated with the maximum value of the signals induced by BDNF as 100% and a signal with no stimulation as 0%. The peptide with 50% or more activity when 1 nM of the peptide was added was evaluated as A, the peptide with 50% or more activity when 10 nM of the peptide was added was evaluated as B, and the peptide with 50% or more activity when 100 nM of the peptide was added was evaluated as C. Those that were not evaluated were listed as not tested.
The BDNF was evaluated at 7 points (0.0024 nM to 10 nM) from 10 nM using 4-fold dilutions.
For dimer structures Nos. 1 to 3, the peptide was evaluated at 1 nM, 10 nM, and 100 nM, and, for other dimer structure numbers, the peptide was evaluated at 0.1 nM, 1 nM, and 10 nM. When creating the concentration dependence curve, the BDNF and the peptides were evaluated at […] (0.006 nM to 100 nM) […] using 4-fold dilutions.

TrkB = TrkB (Homo sapiens, UniProt Q16620); assay: PathHunter eXpress TrkB Functional Assay (phosphorylation of TrkB); conditions: maximum signal induced by BDNF = 100%; stimulation for 3 hours
Procedure, shortened: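 PathHunter TrkB cells, cultured 48 h, were stimulated 3 h with peptide or BDNF, then detection reagent added for 60 min at room temperature; luminescence read. Activity (%) scaled from unstimulated (0%) to maximal BDNF signal (100%); peptides tested over 0.006104-100 nM, 0.032-100 nM or 0.01-10 nM ranges.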

[2] = molecular target: T1, TrkB (CellSensor TrkB-NFAT-bla CHO-K1 Cell); assay: pERK1/2 AlphaLISA assay (phosphorylation of ERK) for TrkB agonist activity; conditions: class = peptide concentration giving 50% or more activity; BDNF maximum signal = 100%, no stimulation = 0%; 15 minutes of stimulation
Protocol: To evaluate the TrkB activation potency of the TrkB agonist peptide of the present invention, the phosphorylation of ERK was examined. CellSensor (registered trademark) TrkB-NFAT-bla CHO-K1 Cell (Invitrogen) was cultured in DMEM, high glucose, GlutaMAX (registered trademark) Supplement, and pyruvate (Thermo), comprising 10% FBS (Thermo) and 1× Non-essential amino acids (Thermo), 25 mM HEPES (Thermo), 50 ug/mL Gentamicin, 5 ug/mL Blasticidin (Thermo), and 200 ug/mL Zeocin (Thermo). After the cells were detached using Accutase (Innovative Cell Technologies), they were seeded into a 96-well plate for adherent cultures at 12,500 cells per well and cultured overnight. The next day, for starvation, the culture solution above was replaced with a nutrient starvation medium comprising 0.1% BSA (Sigma), wherein FBS, Blasticidin, and Zeocin were removed from the culture medium, and culturing was performed for 4 hours. Thereafter, Recombinant Human BDNF Protein (R&D Systems) or a peptide was added, and after 15 minutes of stimulation, cells were lysed in the Lysis Buffer provided with the AlphaLISA SureFire Ultra p-Erk1/2 (Thr202/Tyr204) assay kit (PerkinElmer). The assay was performed according to the kit protocol. The signals were detected using a SpectraMax Paradigm Multi-Mode Microplate Reader (Molecular Devices). The obtained signals were analyzed with GraphPad Prism, and the activity (%) was calculated with the maximum value of the signals induced by BDNF as 100% and a signal with no stimulation as 0%. The peptide with 50% or more activity when 1 nM of the peptide was added was evaluated as A, and the peptide with 50% or more activity when 10 nM of the peptide was added was evaluated as B.
The BDNF was evaluated at 8 points (0.0006 nM to 10 nM) from 10 nM using 4-fold dilutions.
For dimer structures Nos. 1 to 3, the peptide was evaluated at 1 nM, 10 nM, and 100 nM, and, for other dimer structure numbers, the peptide was evaluated at 0.1 nM, 1 nM, and 10 nM. When creating the concentration dependence curve, the BDNF and the peptides were evaluated at 8 points (0.006 nM to 100 nM) from 100 nM using 4-fold dilutions.

Chain of TrkB (Q16620 32-822): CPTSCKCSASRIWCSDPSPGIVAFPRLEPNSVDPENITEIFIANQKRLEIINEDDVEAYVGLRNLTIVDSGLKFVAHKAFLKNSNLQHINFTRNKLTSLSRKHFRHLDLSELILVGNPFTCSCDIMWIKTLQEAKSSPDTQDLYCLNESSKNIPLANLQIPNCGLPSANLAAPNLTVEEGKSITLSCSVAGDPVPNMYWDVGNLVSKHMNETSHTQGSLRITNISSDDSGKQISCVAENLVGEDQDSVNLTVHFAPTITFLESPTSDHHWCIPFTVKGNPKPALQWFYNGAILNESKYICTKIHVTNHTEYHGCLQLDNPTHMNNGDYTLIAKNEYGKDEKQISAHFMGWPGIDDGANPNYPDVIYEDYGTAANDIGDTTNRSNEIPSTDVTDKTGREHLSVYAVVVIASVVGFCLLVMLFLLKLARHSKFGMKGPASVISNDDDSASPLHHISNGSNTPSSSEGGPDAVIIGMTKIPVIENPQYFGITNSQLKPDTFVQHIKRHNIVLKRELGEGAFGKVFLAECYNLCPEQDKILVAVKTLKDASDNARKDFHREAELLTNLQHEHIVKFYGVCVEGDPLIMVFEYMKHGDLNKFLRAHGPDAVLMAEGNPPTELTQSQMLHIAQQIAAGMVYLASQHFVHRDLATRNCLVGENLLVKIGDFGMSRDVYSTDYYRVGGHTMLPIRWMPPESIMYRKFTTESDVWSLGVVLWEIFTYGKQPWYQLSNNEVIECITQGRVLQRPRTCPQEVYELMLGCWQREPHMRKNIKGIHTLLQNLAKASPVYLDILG
T1 sequence (Q16620 32-822): as above

Structure (SMILES) | NFAT Assay Results [1] | Emax (TrkB) | pERK (aLISA) Assay Results [2]
CC(C)[C@@H]1NC(=O)[C@H](Cc2cccnc2)NC(=O)[C@H](CCC(=O)O)NC(=O)[C@H](CO)NC(=O)[C@H](Cc2ccc(O)cc2)NC(=O)[C@H]([C@@H](C)O)NC(=O)[C@@H]2CCCN2C(=O)[C@H](Cc2c[nH]c3ccccc23)NC(=O)[C@H](Cc2cccnc2)NC(=O)[C@H](Cc2ccc(O)cc2)NC(=O)[C@@H]2CCCN2C(=O)[C@H](CCC(=O)O)NC(=O)[C@H](Cc2ccccc2)NC(=O)CSC[C@@H](C(=O)NCC(=O)NCCOCCOCCOCCOCCOCCOCCOCCOCCC(=O)NCCCC[C@H](NC(=O)CCOCCOCCOCCOCCOCCOCCOCCOCCNC(=O)CNC(=O)[C@@H]2CSCC(=O)N[C@@H](Cc3ccccc3)C(=O)N[C@@H](CCC(=O)O)C(=O)N3CCC[C@H]3C(=O)N[C@@H](Cc3ccc(O)cc3)C(=O)N[C@@H](Cc3cccnc3)C(=O)N[C@@H](Cc3c[nH]c4ccccc34)C(=O)N3CCC[C@H]3C(=O)N[C@@H]([C@@H](C)O)C(=O)N[C@@H](Cc3ccc(O)cc3)C(=O)N[C@@H](CO)C(=O)N[C@@H](CCC(=O)O)C(=O)N[C@@H](Cc3cccnc3)C(=O)N[C@@H](C(C)C)C(=O)N[C@@H](CO)C(=O)N2)C(N)=O)NC(=O)[C@H](CO)NC1=O [compound 18] (I: {CH2CO}-FEPY[3Pal]WPTYSE[3Pal]VSCG[PEG8]K-NH2 / II: {CH2CO}-FEPY[3Pal]WPTYSE[3Pal]VSCG[PEG8]; amide I:18-II:C (inferred); thioether I:N-I:15, II:N-II:15 (inferred)) | A (The peptide with 50% or more activity when 1 nM of the peptide was added was evaluated as A) | 93% | A (The peptide with 50% or more activity when 1 nM of the peptide was added was evaluated as A)
CC(C)[C@@H]1NC(=O)[C@H](Cc2cccnc2)NC(=O)[C@H](CCC(=O)O)NC(=O)[C@H](CO)NC(=O)[C@H](Cc2ccc(O)cc2)NC(=O)[C@H]([C@@H](C)O)NC(=O)[C@@H]2CCCN2C(=O)[C@H](Cc2c[nH]c3ccccc23)NC(=O)[C@H](Cc2cccnc2)NC(=O)[C@H](Cc2ccc(O)cc2)NC(=O)[C@@H]2CCCN2C(=O)[C@H](CO)NC(=O)[C@H](Cc2ccccc2)NC(=O)CSC[C@@H](C(=O)NCC(=O)NCCOCCOCCOCCOCCOCCOCCOCCOCCC(=O)N[C@@H](CCCCNC(=O)CCOCCC(=O)NCCCC[C@H](NC(=O)CCOCCOCCOCCOCCOCCOCCOCCOCCNC(=O)CNC(=O)[C@@H]2CSCC(=O)N[C@@H](Cc3ccccc3)C(=O)N[C@@H](CO)C(=O)N3CCC[C@H]3C(=O)N[C@@H](Cc3ccc(O)cc3)C(=O)N[C@@H](Cc3cccnc3)C(=O)N[C@@H](Cc3c[nH]c4ccccc34)C(=O)N3CCC[C@H]3C(=O)N[C@@H]([C@@H](C)O)C(=O)N[C@@H](Cc3ccc(O)cc3)C(=O)N[C@@H](CO)C(=O)N[C@@H](CCC(=O)O)C(=O)N[C@@H](Cc3cccnc3)C(=O)N[C@@H](C(C)C)C(=O)N[C@@H](CCC(=O)O)C(=O)N2)C(N)=O)C(N)=O)NC(=O)[C@H](CCC(=O)O)NC1=O [compound 33] (I: {CH2CO}-FSPY[3Pal]WPTYSE[3Pal]VECG[PEG8]K-NH2 / II: {CH2CO}-FSPY[3Pal]WPTYSE[3Pal]VECG[PEG8]K-NH2; linker I:18-II:18 via X2; thioether I:N-I:15, II:N-II:15) | A (The peptide with 50% or more activity when 1 nM of the peptide was added was evaluated as A) | 96% | A (The peptide with 50% or more activity when 1 nM of the peptide was added was evaluated as A)
CC(C)[C@@H]1NC(=O)[C@H](Cc2cccnc2)NC(=O)[C@H](CCC(=O)O)NC(=O)[C@H](CO)NC(=O)[C@H](Cc2ccc(O)cc2)NC(=O)[C@H]([C@@H](C)O)NC(=O)[C@@H]2CCCN2C(=O)[C@H](Cc2c[nH]c3ccccc23)NC(=O)[C@H](Cc2cccnc2)NC(=O)[C@H](Cc2ccc(O)cc2)NC(=O)[C@@H]2CCCN2C(=O)[C@H](CO)NC(=O)[C@H](Cc2ccccc2)NC(=O)CSC[C@@H](C(=O)NCC(=O)N[C@@H](CCCCNC(=O)CCOCCOCCOCCOCCOCCOCCOCCOCCOCCOCCOCCOCCOCCOCCOCCOCCOCCC(=O)NCCCC[C@H](NC(=O)CNC(=O)[C@@H]2CSCC(=O)N[C@@H](Cc3ccccc3)C(=O)N[C@@H](CO)C(=O)N3CCC[C@H]3C(=O)N[C@@H](Cc3ccc(O)cc3)C(=O)N[C@@H](Cc3cccnc3)C(=O)N[C@@H](Cc3c[nH]c4ccccc34)C(=O)N3CCC[C@H]3C(=O)N[C@@H]([C@@H](C)O)C(=O)N[C@@H](Cc3ccc(O)cc3)C(=O)N[C@@H](CO)C(=O)N[C@@H](CCC(=O)O)C(=O)N[C@@H](Cc3cccnc3)C(=O)N[C@@H](C(C)C)C(=O)N[C@@H](CCC(=O)O)C(=O)N2)C(N)=O)C(N)=O)NC(=O)[C@H](CCC(=O)O)NC1=O [compound 49] (I: {CH2CO}-FSPY[3Pal]WPTYSE[3Pal]VECGK-NH2 / II: {CH2CO}-FSPY[3Pal]WPTYSE[3Pal]VECGK-NH2; linker I:17-II:17 via CO(CH2)2(OCH2CH2)17CO; thioether I:N-I:15, II:N-II:15) | A (The peptide with 50% or more activity when 1 nM of the peptide was added was evaluated as A) | 107% | A (The peptide with 50% or more activity when 1 nM of the peptide was added was evaluated as A)
CC(C)[C@@H]1NC(=O)[C@H](Cc2cccnc2)NC(=O)[C@H](CCC(=O)O)NC(=O)[C@H](CO)NC(=O)[C@H](Cc2ccc(O)cc2)NC(=O)[C@H]([C@@H](C)O)NC(=O)[C@@H]2CCCN2C(=O)[C@H](Cc2c[nH]c3ccccc23)NC(=O)[C@H](Cc2cccnc2)NC(=O)[C@H](Cc2ccc(O)cc2)NC(=O)[C@@H]2CCCN2C(=O)[C@H](CO)NC(=O)[C@H](Cc2ccccc2)NC(=O)CSC[C@@H](C(=O)NCC(=O)NCCOCCOCCC(=O)N[C@@H](CCCCNC(=O)CCOCCC(=O)NCCCC[C@H](NC(=O)CCOCCOCCNC(=O)CNC(=O)[C@@H]2CSCC(=O)N[C@@H](Cc3ccccc3)C(=O)N[C@@H](CO)C(=O)N3CCC[C@H]3C(=O)N[C@@H](Cc3ccc(O)cc3)C(=O)N[C@@H](Cc3cccnc3)C(=O)N[C@@H](Cc3c[nH]c4ccccc34)C(=O)N3CCC[C@H]3C(=O)N[C@@H]([C@@H](C)O)C(=O)N[C@@H](Cc3ccc(O)cc3)C(=O)N[C@@H](CO)C(=O)N[C@@H](CCC(=O)O)C(=O)N[C@@H](Cc3cccnc3)C(=O)N[C@@H](C(C)C)C(=O)N[C@@H](CCC(=O)O)C(=O)N2)C(N)=O)C(N)=O)NC(=O)[C@H](CCC(=O)O)NC1=O [compound 51] (I: {CH2CO}-FSPY[3Pal]WPTYSE[3Pal]VECG[PEG2]K-NH2 / II: {CH2CO}-FSPY[3Pal]WPTYSE[3Pal]VECG[PEG2]K-NH2; linker I:18-II:18 via X2; thioether I:N-I:15, II:N-II:15) | A (The peptide with 50% or more activity when 1 nM of the peptide was added was evaluated as A) | 106% | A (The peptide with 50% or more activity when 1 nM of the peptide was added was evaluated as A)

— US20250282820A1, “PEPTIDE COMPLEX HAVING TRKB BINDING ACTIVITY” (PEPTIDREAM INC, priority 2022, published 2025)
